Experimental data as given in patent publication US20200315168A1, “Aroma-Loaded Microcapsules with Antibacterial Activity for Eco-friendly Applications” (The American University in Cairo, priority 2017, published 2020).

Experiments:
[1] = tested on: Escherichia coli (ATCC 10536); assay: Agar diffusion method (inhibition zone); format: cell-based; set-up: key to Inhibition zone after 4 days of incubation (symbol): — (*): After 4 days of incubation, the bacteria grown up in the inhibition zone initially formed; conditions: E. coli; for Average diameters of inhibition zones, after 24 hours of incubation: 100 μl in 6 mm well, 37° C.; for Inhibition zone after 4 days of incubation (symbol): free oils
Protocol: (§1) This assay was conducted with the limonene and vanillin microcapsules suspensions after applying the washing procedure described previously. Moreover, the free active agents were also tested separately (not incorporated in microcapsules). Staphylococcus aureus (ATCC 19213) and Escherichia coli (ATCC 10536) were used as representatives for Gram positive and Gram negative bacteria, respectively. The bacterial inoculums were prepared, under aseptic conditions, by transferring 4 isolated colonies of each type to individual test tubes containing nutrient broth and then incubated at 37° C. for 24 hours. The inoculums were then diluted by sterilized Ringer solution to a concentration of 0.5 McFarland turbidity (concentration of 1.5-3.0×10^8 CFU/ml). The concentration of the bacteria dilutions, also ascertained through UV spectrophotometry at 625 nm, was 0.0938 for the S. aureus, and 0.0940 for the E. coli. The bacterial solutions were then inoculated on the surface of Mueller Hinton Agar plates, using sterilized cotton swabs, and thereafter allowed to dry. Then, a well of 6 mm diameter was made in the center of each inoculated plate; the plug was removed, and filled with 100 μl of the microcapsules suspension. The limonene oil was diluted in dimethyl sulfoxide (DMSO) (7:3 ratio), and the vanillin dissolved in corn oil (0.03 g vanillin in 1 g of oil). The plates were incubated at 37° C. for 24 h. After this time period, the diameter of the inhibition zone was measured and incubation maintained for more 4 days in order to evaluate further changes in the inhibition zone. The clear zone formed, after incubation, around each hole (inhibition halo), indicates antimicrobial activity and its diameter is a measure of the inhibitory effect. All of the tests were done in duplicates.

[2] = tested on: Staphylococcus aureus (ATCC 19213); assay: Agar diffusion method (inhibition zone); format: cell-based; set-up: key to Inhibition zone after 4 days of incubation (symbol): — (*): After 4 days of incubation, the bacteria grown up in the inhibition zone initially formed; conditions: S. aureus; for Average diameters of inhibition zones, after 24 hours of incubation: 100 μl in 6 mm well, 37° C.; for Inhibition zone after 4 days of incubation (symbol): free oils
Protocol: as §1

Compound | Average diameters of inhibition zones, after 24 hours of incubation [1] | Inhibition zone after 4 days of incubation (symbol) [1] | Average diameters of inhibition zones, after 24 hours of incubation [2] | Inhibition zone after 4 days of incubation (symbol) [2]
C=C(C)[C@H]1CC=C(C)CC1 [Limonene in DMSO, Limonene] | 3.30 ± 0.31 cm | — (*) | 3.30 ± 0.18 cm | — (*)
COc1cc(C=O)ccc1O [Vanillin in corn oil, Vanillin] | 0.95 ± 0.32 cm | — (*) | 1.00 ± 0.20 cm | — (*)
